Test results taken from PMC11648822, “Lactam Truncation Yields a Dihydroquinazolinone Scaffold with Potent Antimalarial Activity that Targets PfATP4” (Chemmedchem, 2024).
Where two headings read alike, the source gives them in different places.

Assays:
[1] = test system: P. falciparum (Pf) 3D7 parasites; experiment: P. falciparum LDH viability assay; format: cell-based; conditions: Plasmodium falciparum, 3D7, 72 h, LDH activity at 72 h; mean and SD of 3 independent experiments
From the text: This assay is a platform assay conducted at the Walter and Eliza Hall Institute and uses a protocol previously decsribed.[30, 31]

[2] = Human HepG2 cytotoxicity assay (Cell Titre Glo); format: cell-based; conditions: HepG2 cells, growth inhibition at 48 h, 4 replicate experiments, read-out: HepG2 CC50 (SD)
From the text: This assay uses Cell TitreGlo as a metabolic maker for human HepG2 cell growth and uses a protocol previously described.[32]

[3] = test system: P. falciparum Dd2 parental strain; experiment: PfATP4 drug resistant parasite viability assay (LDH), Dd2 parental; format: cell-based; conditions: Plasmodium falciparum, DD2, 72 h, read-out: Dd2^parental EC50 (SD)
Experimental: (§1) These assays were performed according to a previously described protocol.[16] Briefly, P. falciparum Dd2 strains treated with compound were incubated for 72 h at 37 °C. After incubating for 72 h, plates were frozen at −80 °C and then thawed at room temperature for at least 2 h. LDH activity, a surrogate for parasite growth was measured by the addition of the Malstst reagent mix, followed by incubation for 30 min and absorbance read using a ClarioStar Microplate reader at 650 nm. Values were normalized to DMSO control as a percentage and EC50 and dose response curves generated using GraphPad Prism.

[4] = test system: P. falciparum Dd2 PfATP4^F156L strain; experiment: 'compound 49' resistant parasite viability assay (LDH), Dd2 F156L; format: cell-based; conditions: Plasmodium falciparum, DD2, 72 h, read-out: Dd2^F156L EC50 (SD)
Experimental: as §1

[5] = test system: P. falciparum Dd2 PfATP4^D425E strain; experiment: 'compound 49' resistant parasite viability assay (LDH), Dd2 D425E; format: cell-based; conditions: Plasmodium falciparum, DD2, 72 h, read-out: Dd2^D425E EC50 (SD)
Experimental: as §1

[6] = test system: P. falciparum Dd2 strain with 2.8-fold amplification in PfATP4; experiment: 'compound 49' resistant parasite viability assay (LDH), Dd2 2.8 CNV; format: cell-based; conditions: Plasmodium falciparum, DD2, 72 h, read-out: Dd2^2.8 CNV EC50 (SD)
Experimental: as §1

[7] = test system: P. falciparum Dd2 PfATP4^triple (I398F, P990R, D1247Y) strain; experiment: PfATP4 drug resistant parasite viability assay (LDH), Dd2 triple; format: cell-based; conditions: Plasmodium falciparum, DD2, 72 h, read-out: Dd2^triple EC50 (SD)
Experimental: as §1

[8] = test system: P. falciparum Dd2 PfATP4^G358S strain; experiment: PfATP4 drug resistant parasite viability assay (LDH), Dd2 G358S; format: cell-based; conditions: Plasmodium falciparum, DD2, 72 h, read-out: Dd2^G358S EC50 (SD)
Experimental: as §1

[9] = test system: P. falciparum 3D7 parasites; experiment: P. falciparum viability assay (SYBR green), 3D7; format: cell-based; conditions: Plasmodium falciparum, 3D7; SYBR green, 72 h; read-out: P. falciparum parental EC50 (SD) 3D7
Experimental: (§2) These assays were performed as previously described.[16] […] Parasites were synchronised with 5 % (w/v) sorbitol (Sigma‐Aldrich) treatments for ring stages. […] Parasites were grown in 1 % haematocrit, at 1 % and 2 % parasitaemia for P. falciparum and P. knowlesi respectively. […] Parasitaemia was measured using a SYBR DNA staining assay on a fluorometer.[33] After the incubation period, supernatants were removed and well contents were resuspended in PBS.

[10] = test system: P. falciparum Dd2; experiment: P. falciparum viability assay (SYBR green), Dd2; format: cell-based; conditions: Plasmodium falciparum, DD2, 72 h, read-out: P. falciparum parental EC50 (SD) Dd2
Experimental: (§3) These assays were performed as previously described.[16] P. falciparum 3D7 parasites and resistant lines Dd2, W2mef, 7G8, and artemisinin‐resistant Cambodian isolate (Cam3.I (2539T)), and P. knowlesi YH1, were cultured in human O^+ erythrocytes (RBCs) (Australian Red Cross Blood Service), in RPMI‐HEPES culture medium (pH 7.4, 50 μg/mL hypoxanthine, 25 mM NaHCO3, 20 μg/mL gentamicin, 0.5 % Albumax II (GibcoBRL)) (Thermo Fisher Scientific) and maintained in an atmosphere of 1 % O2, 4 % CO2 and 95 % N2. Parasites were synchronised with 5 % (w/v) sorbitol (Sigma‐Aldrich) treatments for ring stages. Growth assays for measuring drug inhibition of in‐cycle, ring to schizont stage parasites have been described previously. Parasites were grown in 1 % haematocrit, at 1 % and 2 % parasitaemia for P. falciparum and P. knowlesi respectively. […] Parasitaemia was measured using a SYBR DNA staining assay on a fluorometer.[33] After the incubation period, supernatants were removed and well contents were resuspended in PBS.

[11] = test system: P. knowlesi YH1 parasites; experiment: P. knowlesi viability assay (SYBR green); format: cell-based; conditions: Plasmodium knowlesi, 48 h, read-out: P. knowlesi EC50 (SD) YH1
Experimental: as §2

[12] = test system: P. falciparum W2^mef; experiment: Multidrug-resistant parasite viability assay (SYBR green), W2mef; format: cell-based; conditions: Plasmodium falciparum, W2, 72 h, read-out: multidrug resistant P. falciparum strains EC50 (SD) W2^mef
Experimental: as §3

[13] = test system: P. falciparum 7G8; experiment: Multidrug-resistant parasite viability assay (SYBR green), 7G8; format: cell-based; conditions: Plasmodium falciparum, 7G8, 72 h, read-out: multidrug resistant P. falciparum strains EC50 (SD) 7G8
Experimental: as §3

[14] = test system: P. falciparum CAM3.1; experiment: Multidrug-resistant parasite viability assay (SYBR green), CAM3.1; format: cell-based; conditions: Plasmodium falciparum, 72 h, read-out: multidrug resistant P. falciparum strains EC50 (SD) CAM3.1
Experimental: as §3

[15] = test system: P. falciparum Dd2 PfATP4^triple (I398F, P990R, D1247Y) strain; parameters: method as in Ashton, Dans et al. 10; conditions: ref Ashton, Dans et al. 10; cited from earlier work
[16] = test system: P. falciparum (Pf) 3D7 parasites; parameters: method as in PMID 36812492, PMID 39134060; conditions: Figure 1; cited from earlier work
[17] = parameters: method as in PMID 39134060; conditions: 25 mg/kg oral dose, 4-day model; recrudescence detected after day 4; cited from earlier work
[18] = Figure 1; cited from earlier work
[19] = test system: P. falciparum Dd2 parental strain; parameters: method as in Ashton, Dans et al. 10; conditions: LDH at 72 h; ref Ashton, Dans et al. 10; cited from earlier work
[20] = test system: P. falciparum Dd2 PfATP4^G358S strain; parameters: method as in Ashton, Dans et al. 10; conditions: ref Ashton, Dans et al. 10; cited from earlier work
[21] = test system: P. berghei ANKA; experiment: P. berghei 4-day mouse model; format: in vivo; conditions: 30 mg/kg p.o. q.d.
Experimental: In this model, mice are infected with P. berghei ANKA asexual blood stage parasites. Compounds are then administered by oral gavage at 20 mg/kg 2, 24, 48, and 72 hours after the parasite infection.
Each day, a fresh aliquot of the compound stock was diluted 1/10 in water for administration to mice. 8 week old female mice (Ozgene) on day 0 were infected with 2×10^7 P. berghei ANKA‐infected erythrocytes. […] 2 mice were also dosed with artesunate using the same regime at 30 mg/kg. The parasitemia of mice was assessed by visualizing Giemsa‐stained thin blood smears by microscopy and a minimum of 1000 RBCs were counted. To calculate the percent antimalarial activity the following formula was used: 100 ‐ (mean parasitemia treated day 4 post‐infection/mean parasitemia vehicle control day 4 post‐infection)×100. Mice were culled the day following the last oral gavage.
Briefly, ‘donor’ female Swiss mice were infected intraperitoneally (IP) with blood stage P. berghei parasites constitutively expressing GFP (P. berghei ANKA GFPcon 259cl2).[36] Three days later, groups of 3 ‘acceptor’ Swiss mice were infected intravenously with 1 x 10^7 parasitised red blood cells from the ‘donor mice’. […] Control mice were left untreated. Peripheral blood samples were taken 24 h after administration of the last dose, and parasitemia was measured by flow cytometry (proportion of GFP‐positive cells in 100,000 recorded events using Attune Nxt, ThermoFisher) and microscopic analysis of Giemsa‐stained blood smears. Parasitemia values were averages of 3 mice per group.

With `CN1C(=O)c2ccc(Cl)cc2NC1(C)C(=O)Nc1cccc(Cl)c1` (stereo not shown) [Compound 11, 7‐Chloro‐N‐(3‐chlorophenyl)‐2,3‐dimethyl‐4‐oxo‐1,2,3,4‐tetrahydroquinazoline‐2‐carboxamide] the EC50 [1] was 18 nM, the CC50 at 48 h [2] was > 40000 nM and the EC50 [3] was 21 nM. The EC50 [4] was 41 nM, the EC50 [5] was 36 nM and the EC50 [6] was 40 nM. For the same compound, the EC50 [7] was 140 nM, the EC50 [8] was 44 nM and the EC50 [9] was 14 nM. For the same compound, the EC50 [10] was 17 nM, the EC50 [11] was 65 nM and the EC50 [12] was 9 nM. For the same compound, the EC50 [13] was 33 nM and the EC50 [14] was 13 nM.
For `C[C@H]1Cc2c([nH]c3cc(Cl)c(F)cc23)[C@@]2(N1)C(=O)Nc1ccc(Cl)cc12` [KAE609, reference compound], the EC50 [4] was 4 nM, the EC50 [5] was 2 nM and the EC50 [6] was 3 nM. For the same compound, the EC50 [15] was 9 nM.
For `CN1C(=O)c2c(F)cc(-c3cnn(C)c3)cc2N2C(=O)CCC12C(=O)Nc1cncc(Cl)c1` (stereo not shown) [S-WJM992 (5)], the EC50 [16] is given as 8 nM, the effect on parasitemia [17] is given as “cleared parasitemia” and the “Rat hepatocytes CLint” value [18] is given as 14 μL/min/10^6 cells.
For `N#Cc1cc(NC(=O)[C@H]2c3ccccc3C(=O)N(CC(F)(F)F)[C@@H]2c2cccnc2)ccc1F` [SJ733, reference compound], the EC50 [4] was 135 nM, the EC50 [5] was 80 nM and the EC50 [6] was 129 nM. For the same compound, the EC50 [19] was 68 nM and the EC50 [20] was > 11000 nM.
For `C[C@H]1[C@H](OC(=O)CCC(=O)O)O[C@@H]2O[C@@]3(C)CC[C@H]4[C@H](C)CC[C@@H]1[C@@]24OO3` [artesunate, reference compound], the “% parasitemia” value ([21]; day 4) was 0.66% and the “% reduction in parasitemia” value ([21]; day 4, versus control) was 96%.
